# Experimental data: patent US7989495B2, “Compositions and methods for inhibiting NF-κB mediated tumorigenicity and adhesion dependent survival of cancer cells” (University of Utah Research Foundation, priority 2002, dated 2011)
# Where “and” joins values, the source holds several entries; their conditions need not be identical. Equal values may be shown once.
# Legend:
# [1] = test system: FLIP (54 kilodalton long isoform); experiment: Immunoblot of anti-apoptotic proteins in HT-29 cells; format: cell-based; details: adherent HT-29; 20 μM
# Protocol: (§1) The data points represent the means of triplicate experiments and the error bars the standard errors of the means. […] The percent of apoptotic cells was then determined by the annexin V assay. […] The results shown are typical of two separate experiments. […] Immunoblots were performed for c-IAP-2, TRAF-1, TRAF-2, and FLIP. All lanes contain equal total protein.
# (§2) The cells were washed twice in ice cold PBS and then lysed in 4° C. lysis buffer (50 mM HEPES, 150 mM NaCl, 1.5 mM MgCl2, 1 mM EGTA, 100 mM NaF, 10 mM Na2PO4, 1 mM Na3VO4, 10% glycerol, 1% Triton X-100, and 1 μg/ml each of aprotinin, leupeptin, chymostatin, pepstatin) and clarified at 12,000 rpm at 4° C. for 15 minutes. The lysates were normalized for total protein concentration. Aliquots of the lysates were then mixed 1:1 in sample buffer (125 mM Tris-HCl (pH 6.8), 20% glycerol. 4% sodium dodecyl sulfate, 2% beta-mercaptoethanol, 10 μg/ml bromophenol blue) and boiled for 3 minutes. The samples were loaded onto SDS-PAGE gels (7.5 or 10% acrylamide). The proteins were transferred to nitrocellulose from the gels, then incubated in blocking buffer (1% bovine serum albumin (Bio-Rad), 100 mM Tris-Cl (pH7.4), 0.9% NaCl, 0.1% Nonidet) overnight at 4° C.
# (§3) For immunodetection, the blocked blots were probed with primary antibody for 2 hours at 4° C. on a rocker. The blots were washed twice for 10 minutes each in blocking buffer, then incubated with a 1:2000 dilution of a rabbit-anti-mouse secondary antibody (for monoclonal primary antibodies; for polyclonal antibodies, this step was skipped). After two washes in blocking buffer (150 mM NaCl, 20 mM Tris pH 7.4, 0.5% Tween 20, 5% bovine serum albumin, and 0.2 gm/500 ml final concentration of sodium azide), the blots were finally incubated with a 1:2000 dilution of alkaline phosphatase-conjugated rabbit-anti-mouse antibodies (Jackson) in blocking buffer. Alkaline phosphatase was detected by a colorimetric reaction using a BCIP (5-Bromo-4-Chloro-3-Indolyl phosphate)/NBT (Nitroblue tetrazolium) kit (Zymed).
# c-IAP-1 = experiment: as above; format: cell-based; details: transiently suspended or adherent HT-29; 20 μM; 8 hours
# Protocol: as §1, §2, §3
# TRAF-1 = experiment: as above; format: cell-based; details: 20 μM, 8 hours
# Protocol: as §1, §2, §3
# TRAF-2 = experiment: as above; format: cell-based; details: 20 μM, 8 hours
# Protocol: as §1, §2, §3
# [2] = test system: HCT-116 cells injected intraperitoneally; experiment: Intraabdominal seeding (metastasis) model in athymic mice; format: in vivo; details: HCT-116 intraperitoneal; pretreated, then twice weekly; after 21 days
# Text: (§4) FIGS. 6A, B, C show tumor implants of the liver of three athymic mice 21 days after receiving intraperitoneal injections of HT-29 cells. The mice were pretreated and treated for a total of 21 days with DMSO twice weekly. […] The mouse was pretreated and treated for a total of 21 days with DMSO twice weekly. […] This section was obtained from the tumor implant from the mouse in FIG. 6A. […] FIG. 6G, (liver), FIG. 6H, (abdominal wall), and FIG. 6I, (intestinal) show tumor implants in three athymic mice 21 days after receiving intraabdominal injections of HCT-116 cells. All of the mice were treated with 5 mg/kg of BAY 11-7085 twice weekly.
# (§5) HT-29 and HCT-116 cells were harvested in 0.25% trypsin-PBS-EDTA, washed once in media and PBS, and resuspended in PBS at 1 million cells per 200 μL. One million cells were injected either subcutaneously in the backs or intraperitoneally in 5 week old female nu/nu athymic mice (Charles River Labs). For the mice with subcutaneous tumors, the tumors were allowed to establish themselves for 10 days after which they were randomized to BAY 11-7085 or DMSO. For the mice with intraperitoneal tumors, the mice received DMSO or BAY 11-7085 (5 mg/kg) 24 hours before the cancer cells were injected intrapentoneally. All mice received BAY 11-7085 (5 mg/kg) or an equal volume of DMSO (˜200 μL) twice weekly for 21-32 days. Subcutaneous tumor sizes were determined by measuring the length and width with calipers. These studies were approved by the U. of Utah Institutional Review Board and Institutional Animal Care and Use Committee and performed in the Animal Resource Center. Mice were euthanized when they experienced a greater than 10% loss in body weight or if they appeared ill. […]
# (§6) Since BAY 11-7085 induced apoptosis of readherent HT-29 cells, an in vivo model was used to test the ability of the drug to prevent metastasis by seeding of intraabdominal tissue with colon cancer cells. […] Seeding results from the transient suspension of cancer cells, through a loss of adhesion either naturally ro because of surgical displacement, followed by readhesion to other tissues. […]
# [3] = test system: HT-29 cells injected intraperitoneally; experiment: as above; format: in vivo; details: HT-29 intraperitoneal; pretreated 24 hours earlier, then twice weekly, 21 days; n = 6
# Text: as §4, §5, §6
compound,measurement,setting,value
"CC(C)(C)c1ccc(S(=O)(=O)/C=C/C#N)cc1 [BAY 11-7085, (2E)-3-[4-(tertiarybutylphenyl)sulfonyl]-2-propenenitrile]",expression of the 54 kilodalton (long) isoform of FLIP,[1],only a slight diminution
same,c-IAP-1 protein expression,c-IAP-1,No decrease in c-IAP-1 protein expression
same,TRAF-1 protein expression,TRAF-1,decrease in the protein expression
same,TRAF-2 protein expression,TRAF-2,decrease in the protein expression
same,metastases of parietal and visceral peritoneum,[2],clear evidence of metastases
same,Liver Metastases (mice with metastases / mice),[3],none of the 6 and 0/6
same,Peritoneal Metastases (mice with metastases / mice),[3],2 of 6 and 2/6
